Source: US20060251714A1, “Pharmaceutical formulations of amyloid inhibiting compounds” (priority 2005, published 2006)

Key:
Type in all cases: in vivo, human
[1] = Example 7 Part I: single rising oral doses of NC-758, plasma pharmacokinetics in healthy young and elderly male volunteers; conditions: for AUC∞: mean, only subjects with estimable elimination rate constant
Description: (§1) In the following examples and elsewhere herein, terms are as defined below. The pharmacokinetic parameters were derived by non-compartmental analysis using WinNonlin® (Pharsight Corporation, Mountain View, Calif.) or SAS® for Windows® (SAS Institute Inc., Cary, N.C.).
Cmax —the maximum observed plasma concentration.
Tmax—the time of occurrence of Cmax.
AUC0-t—the area under the plasma concentration versus time curve from time zero to the last sampling time at which concentrations were at or above the limit of quantification, calculated by the linear trapezoidal rule.
AUC∞—the area under the plasma concentrations versus time curve from time zero to infinity, calculated from AUC0-t+(Clast/λz), where Clast is the last observed quantifiable concentration and λz is the apparent terminal rate constant.
t1/2—the apparent terminal half-life, calculated from Ln2/λz.
Part I—The pharmacokinetic profile and the effect of food on single rising oral doses of 3-APS free acid, (modified-release enteric-coated tablet, as described in Table 3 above, hereinafter “NC-758”) in healthy male young (18-45 years) volunteers is determined. For doses at multiples of 100 mg, multiple 100 mg tables are administered. The pharmacokinetics of a single oral dose of NC-758 is also determined in a group of healthy male elderly (≧55 years old) volunteers. The test is a randomized, double-blind, placebo-controlled study to assess the pharmacokinetic profile of 4 single rising oral doses of NC-758 in healthy young (18-45 years) male subjects. Blood samples are collected during 24 h following dosing. Plasma concentrations of 3-APS are determined using a validated LC-MS/MS method.

[2] = Example 10: 12-week placebo-controlled study in mild to moderate Alzheimer's Disease patients, plasma pharmacokinetics; conditions: AD patients; for AUC∞: mean, only patients with estimable elimination rate constant
Description: as §1
AUCss—the area under the plasma concentrations versus time curve during a dosing interval at steady state.
A multicenter, randomized, double-blind, placebo-controlled and parallel designed study is made with 3-APS in the formulation described in Table 5 above in patients suffering from mild to moderate Alzheimer's Disease (AD). An objective of this study is to assess the safety and tolerability of 3-APS and to assess its pharmacokinetics in AD patients. A total of fifty-eight (58) mild to moderate AD patients (MMSE scores=13 to 26) are enrolled from 6 centers in the United States. Patients are randomized to receive in 1:1:1:1 ratio of NC-758-1 at 50, 100, 150 mg BID or placebo BID for 12 weeks. Study medication is administered orally (tablet). For doses at multiples of 50 mg, multiple 50 mg tables are administered. Each patient is evaluated on 6 occasions at screening, baseline [Week 0], weeks 2, 4, 8 and 12. Blood samples are collected from each patient prior to dosing and at specified time points through 12 h post-dose after the first dose (Week 0) and the last dose (Week 12). Blood samples are also collected prior to the first dose of the day during Week 2, 4 and 8 visits.

[3] = test system: mild to moderate AD patients; test: Example 11: open-label extension in AD patients, psychometric tests (ADAS-cog, CDR); conditions: for average CDR score (change): after 20 months total on study medication, reported 12-month mean change +1.4 to 2.2 points in comparable patients
Description: The ADAS-cog test is described in […] Annals of Neurology 23:477-484, which is incorporated herein by reference. It is a validated scale developed specifically as a research instrument to evaluate the severity of cognitive deficits characteristic of patients with AD. This test can usually be administered to participants in less than one hour. The ADAS-cog ranges from 0 to 70 points, with higher scores indicating a greater degree of cognitive impairment. Improved performance can be measured in patients treated with formulations of the invention compared to placebo-treated patients at various time intervals. Improvement can be measured by detecting an improved score in the treated patients compared to untreated controls after 6 months, preferably 12 months, more preferably 18 months or longer. […] Patients with Alzheimer's disease typically show an annual increase in ADAS-cog scores of from about 4-9. An improvement would provide for a lessening in the increase compared to untreated controls, for example, an annual increase of less than about 5 points or 4 points, preferably 3 points, more preferably 2 points or 1 point or even a stabilization or decrease in the score.
The CDR is described in Morris, J (1993) Neurology 43: 2412-2414, which is incorporated herein by reference. Further to the discussion of the CDR test below, it is a global rating scale of dementia that is derived from ratings of impairment assigned by an independent rater in six domains, after approximately a 90-minute interview of the caregiver and participant (Hughes C P, Berg L, Danziger W L, et al. A New Clinical Scale for the Staging of Dementia. Brit. J. Psychiat 1982; 140: 566-572). The CDR scale is from 0-18 with a higher score indicating a worsening impairment. Impairment in each of the six domains is rated as “none” (O), “questionable” (0.5), “mild” (1), “moderate” (2) or “severe” (3). Improvement can be measured by detecting a lower score in the treated patients compared to controls after 6 months, preferably 12 months, more preferably 18 months or longer. […] Patients with Alzheimer's disease typically show an annual increase in CDR scores of from about 1-3. An improvement would provide for an annual increase of less than about 3 points or 2 points, preferably 1 point, more preferably 0.5 points or 0.25 points or even an improvement (reduction) in the score.
The patients from the clinical studies in Example 10 are offered 3-APS (formulation of Table 5 above) at 150 mg BID for an additional 17 months (thus, 20 months total) in an open-label study. For doses at multiples of 50 mg, multiple 50 mg tables are administered. Twenty-four mild to moderate AD patients complete the study. Psychometric tests (ADAS-cog) are performed at each visit, that is every 3 months for the first 9 months and every 4 months for the last […]. Overall, approximately 70% of the mild AD patients show stabilized or improved cognitive function tests after 20 months.

[4] = 200 mg dose, see Tables 9 and 10
[5] = single oral 100 mg NC-758 (Table 3 tablet), young (18-45 years) male subjects, fasted, n = 5, mean
[6] = single oral 200 mg NC-758 (Table 3 tablet), elderly (>55 years) male subjects, fasted, n = 6, mean
[7] = single oral 200 mg NC-758 (Table 3 tablet), young (18-45 years) male subjects, fasted, n = 6, mean
[8] = single oral 300 mg NC-758 (Table 3 tablet), young (18-45 years) male subjects, fasted, n = 5, mean
[9] = single oral 400 mg NC-758 (Table 3 tablet), young (18-45 years) male subjects, fasted, n = 3, mean
[10] = 50 mg BID (Table 5 tablet), Week 0 (single dose), n = 15, mean
[11] = 100 mg BID (Table 5 tablet), Week 0 (single dose), n = 16, mean
[12] = 150 mg BID (Table 5 tablet), Week 0 (single dose), n = 14, mean

## NCCCS(=O)(=O)O [3-APS, 3-amino-1-propanesulfonic acid]
[1]; [4]
  AUC0-t greater in elderly subjects compared to young subjects: approximately 70%
  Cmax greater in elderly subjects compared to young subjects: approximately 70%
[1]; single oral 100 mg NC-758 (Table 3 tablet), young (18-45 years) male subjects, fasted
  AUC∞: 1421 ng·h/mL
[1]; [5]
  AUC0-Tlast: 1392 ng·h/mL
  Cmax: 410 ng/mL
[1]; [6]
  AUC0-Tlast: 4882 ng·h/mL
  Cmax: 1094 ng/mL
[1]; single oral 200 mg NC-758 (Table 3 tablet), young (18-45 years) male subjects, fasted
  AUC∞: 2492 ng·h/mL
[1]; [7]
  AUC0-Tlast: 2898 ng·h/mL
  Cmax: 661 ng/mL
[1]; single oral 300 mg NC-758 (Table 3 tablet), young (18-45 years) male subjects, fasted
  AUC∞: 4464 ng·h/mL
[1]; [8]
  AUC0-Tlast: 3999 ng·h/mL
  Cmax: 904 ng/mL
[1]; [9]
  AUC0-Tlast: 15966 ng·h/mL
  Cmax: 5367 ng/mL
[1]; single oral 400 mg NC-758 (Table 3 tablet), young (18-45 years) male subjects, fasted, n = 3, median
  Tmax: 2 h
[2]; 50 mg BID (Table 5 tablet), Week 0 (single dose)
  AUC∞: 1396 ng·h/mL
[2]; [10]
  AUC(0-t): 1321 ng·h/mL
  Cmax: 310 ng/mL
[2]; 50 mg BID (Table 5 tablet), Week 12 (repeated), n = 15, median
  Tmax: 3 h
[2]; 100 mg BID (Table 5 tablet), Week 0 (single dose)
  AUC∞: 2569 ng·h/mL
[2]; [11]
  AUC(0-t): 2467 ng·h/mL
  Cmax: 618 ng/mL
[2]; 100 mg BID (Table 5 tablet), Week 0 (single dose), n = 16, median
  Tmax: 4.5 h
[2]; 100 mg BID (Table 5 tablet), Week 12 (repeated), n = 14, median
  Tmax: 3.5 h
[2]; 150 mg BID (Table 5 tablet), Week 0 (single dose)
  AUC∞: 3418 ng·h/mL
[2]; [12]
  AUC(0-t): 2792 ng·h/mL
  Cmax: 624 ng/mL
[2]; 150 mg BID (Table 5 tablet), Week 12 (repeated), n = 11, median
  Tmax: 3 h
[3]; 150 mg BID open-label (Table 5 tablet), after 20 months
  mild AD patients showing stabilized or improved cognitive function tests: approximately 70%
[3]; mild AD patients (n=13), 150 mg BID open-label, 20 months, comparable historical controls +8.6 points
  change from baseline in average ADAS-cog score: +3.5 points
[3]; mild AD patients
  average CDR score (change): +2.36 points
[3]; mild to moderate AD patients (n=24), 150 mg BID open-label, 20 months, comparable historical controls +10.3 points
  average ADAS-cog score (change): +7.8 points
[3]; moderate AD patients
  average CDR score (change): 2.77 points
